Laboratory results as given in US11007169B2, “Cis-gnetin H and trans-gnetin H as therapeutic agents” (MIDDLE TENNESSEE STATE UNIVERSITY, priority 2014, dated 2021).

Legend:
[1] = system: mitochondrial cytochrome c in A549 cells; test: Analysis of cytochrome c by flow cytometry, A549; assay type: cell-based, human; details: 100 μM, 24 hours
Description: (§1) A549 and BT20 cells were seeded in a 96-well plate (BD Falcon) at a density of 8000 cells/well and treated with 100 μM of cis- or trans-gnetin H for 24 hours. The expression of cytochrome c was evaluated using the FlowCellect Cytochrome c Kit (Millipore) according to the manufacturer's instructions. Cells were stained with either Anti-IgG1-FITC Isotype control or Anti-Cytochrome c-FITC, and data was acquired and analyzed using the Guava Flow Cytometer (Millipore).

[2] = system: A549 cells; test: Cell cycle analysis by flow cytometry, A549; assay type: cell-based, human; details: 100 μM, 24 hours
Description: A549 and BT20 cells were first synchronized in the G0 phase by culturing cells for 24 hours in serum-free medium and then treated with 100 μM cis- or trans-gnetin H for 24 hours, respectively. Cell cycle analysis was done using propidium iodide (PI) staining as described (An et al., Mol. Cancer Ther. 2007; 6:61-9) and the cells were analyzed on a Guava Flow Cytometer with InCyte software (Millipore).

[3] = system: IL-1β in LPS-stimulated THP-1 cells; test: Cytokine response by ELISA, IL-1β; assay type: cell-based, human; details: cis 12.5-50 μM, trans 8-30 μM, 20 ng/ml LPS, p<0.05
Description: (§2) THP-1 cells were maintained in RPMI 1640 medium supplemented with 10% complement-inactivated FBS and 1% penicillin/streptomycin (complete culture medium) at 37° C. with 5% CO2 supplemented. Cell concentrations were adjusted to desired concentrations for each experiment by centrifugation at 500×g for 5 min and resuspended in complete culture medium with 100 nM of PMA. Cell concentration was adjusted to 5×10^5 cells/ml for all assays and 2.5×10^5 cells/ml were used for NF-κB nuclear translocation assay. Cells were seeded onto 96-, 24-, or 12-well plates and incubated for 48 to 72 h to allow for differentiation. Cells were washed with serum-free RPMI 1640 medium before each experiment to remove the undifferentiated cells.
(§3) Differentiated THP-1 cells were pretreated with various concentrations of cis-gnetin H, trans-gnetin H, or 1 μM of dexamethasone for 1 h and stimulated with 20 ng/ml of LPS for 4 h. Dexamethasone is a synthetic glucocorticoid that suppresses cytokine response and was used as a positive control (Abraham et al., 2006, J. Exp. Med., 203:1883-9; Steer et al., J. Biol. Chem., 2000, 275(24):18432-40). Supernatants were collected for human cytokine ELISAs and the manufacturer's protocol was followed to assess the cytokine response. Cells remaining after the supernatant collection were tested for relative viability by Alamar Blue cytotoxicity assay as described earlier.

[4] = system: caspase 3/7 in A549 cells; test: Caspase 3/7 activation assay (Caspase-Glo 3/7); assay type: cell-based, human; details: 100 μM
Description: Caspase 3/7 activity was analyzed using an in-situ luminescent marker. A549 and BT20 cells were seeded in a white 96-well plate (Greiner) at a density of 8000 cells/well, and treated with 100 μM cis- or trans-gnetin H for 24 hours. Caspase activity was then determined using the Caspase-Glo 3/7 Assay (Promega) according to the manufacturer's instructions. The luminescence of each sample was measured using a SpectraMax M2e Microplate Reader (Molecular Devices Inc.).

[5] = Conversion testing under 12-watt fluorescent lamp, HPLC; assay type: physicochemical; details: 6-hour treatment; for concentration of the compound after illumination: HPLC
Description: For stability testing, cis- and trans-gnetin H were dissolved with methanol to a concentration of 1 mg/ml. The stock solutions were sealed in a glass bottle and kept in the dark at room temperature for 6 months and then the purity of the two compounds was tested using the HPLC method previously described (He et al., J. Liq. Chromatog. Rel. Technol. 2013; 36:1708-1724). For conversion testing, cis- and trans-gnetin H were individually illuminated with a 12-watt fluorescent lamp for 2, 4 and 6 hours, and the compounds were identified using HPLC.

[6] = system: phosphorylated IκB α (Ser32) in LPS-stimulated THP-1 cells; test: Western blot, IκB α phosphorylation; assay type: cell-based, human; details: concentration-dependent
Description: as §2
(§4) Differentiated THP-1 cells were pretreated with various concentrations of cis-gnetin H, trans-gnetin H, or 10 μM of Bay 11-7082 for 1 h and stimulated with 1 μg/ml of LPS for 15 min. Cells were lysed with radio-immunoprecipitation assay (RIPA; 1% Triton X-100, 0.5% Sodium deoxycholate, 0.1% sodium dodecyl sulfate, 150 mM sodium chloride, and 50 mM Tris-chloride) lysis buffer that contained protease and phosphatase inhibitor cocktail. Cell lysates were then tested for protein concentration using a BCA protein assay, and diluted with RIPA lysis buffer to normalize protein concentration in all samples. […]

[7] = system: phosphorylated IKK α/β (Ser176/180) in LPS-stimulated THP-1 cells; test: Western blot, IKK β phosphorylation; assay type: cell-based, human
Description: as §2, §4

[8] = system: TNF-α in LPS-stimulated THP-1 cells; test: Cytokine response by ELISA, TNF-α; assay type: cell-based, human; details: for IC50: Homo sapiens, THP-1, pretreated 1 h, LPS 4 h, ELISA; for inhibition of TNF-α: cis 12.5-50 μM, trans 8-30 μM, 20 ng/ml LPS, p<0.05
Description: as §2, §3

[9] = system: A549 cells; test: Apoptosis assay by flow cytometry, A549; assay type: cell-based, human; details: 100 μM, 24 hours
Description: A549 and BT20 cells were seeded in a 96-well plate (BD Falcon) at a density of 8000 cells/well, and treated with cis- or trans-gnetin H for 24 hours. Apoptosis was assessed using Annexin V/7-AAD double staining as described (Bai et al., Cancer Sci. 2010; 101(2):488-493). Cells were analyzed on a Guava Flow Cytometer (Millipore) using InCyte software and the data was exported to FlowJo software for image display.

[10] = system: IL-8 in LPS-stimulated THP-1 cells; test: Cytokine response by ELISA, IL-8; assay type: cell-based, human; details: cis 12.5-50 μM, trans 8-30 μM, 20 ng/ml LPS, p<0.05
Description: as §2, §3

[11] = system: mitochondrial cytochrome c in BT20 cells; test: Analysis of cytochrome c by flow cytometry, BT20; assay type: cell-based, human; details: 100 μM, 24 hours
Description: as §1

Oc1ccc(/C=C\c2c3c(cc4c2[C@H](c2cc(O)cc(O)c2)[C@@H](c2ccc(O)cc2)O4)O[C@H](c2ccc(O)cc2)[C@H]3c2cc(O)cc(O)c2)cc1 [cis-gnetin H]
cytochrome c release in A549 [1]: release of mitochondrial cytochrome c | G0-G1 subpopulation, A549 [2]: increased significantly | M and G2-S subpopulation, A549 [2]: significant decrease | inhibition of IL-1β [3]: significant inhibition | activities of caspase 3/7 compared with untreated A549 cells [4]: 3.65 fold | concentration of the compound after illumination [5]: 88.9% | IκB α phosphorylation [6]: significantly inhibited | IKK β phosphorylation [7]: significantly inhibited | IC50 [8]: 19 µM | inhibition of TNF-α [8]: significant inhibition | apoptosis induction in A549 [9]: induce apoptosis | inhibition of IL-8 [10]: significant inhibition | cytochrome c release in BT20 [11]: release of mitochondrial cytochrome c

Oc1ccc(/C=C/c2c3c(cc4c2[C@H](c2cc(O)cc(O)c2)[C@@H](c2ccc(O)cc2)O4)O[C@H](c2ccc(O)cc2)[C@H]3c2cc(O)cc(O)c2)cc1 [trans-gnetin H]
cytochrome c release in A549 [1]: release of mitochondrial cytochrome c | G0-G1 subpopulation, A549 [2]: increased significantly | M and G2-S subpopulation, A549 [2]: significant decrease | inhibition of IL-1β [3]: significant inhibition | activities of caspase 3/7 compared with untreated A549 cells [4]: 2.7 fold | portion converted to its cis-isomer [5]: about 86% | concentration of the compound after illumination [5]: 6.2% | IκB α phosphorylation [6]: significantly inhibited | IKK β phosphorylation [7]: significantly inhibited | IC50 [8]: 6 µM | inhibition of TNF-α [8]: significant inhibition | apoptosis induction in A549 [9]: induce apoptosis | inhibition of IL-8 [10]: significant inhibition | cytochrome c release in BT20 [11]: release of mitochondrial cytochrome c
